Experimental data reported in patent US20260165325A1, “NEW SUBSTITUTED TETRAHYDROBENZOXAZEPINE” (BASF SE, priority 2022, published 2026).

Assays:
Alternaria solani = assay: Activity against the early blight pathogen Alternaria solani in the microtiterplate test; type: cell-based; details: 31 ppm active substance; MTP measured at 405 nm 7 days after inoculation, 18° C.
Sclerotinia sclerotiorum = assay: Preventative fungicidal control of white mold on oilseed rape caused by Sclerotinia sclerotiorum; type: in vivo; details: 100 g/ha, assessed after 14 days, untreated plants 100% infected
Description: The compound was dissolved in a mixture of acetone and/or dimethylsulfoxide and the wetting agent/emulsifier Wettol, which is based on ethoxylated alkylphenoles, in a ratio (volume) solvent-emulsifier of 99 to 1 to give a total volume of 5 ml. Subsequently, water was added to total volume of 100 ml. This stock solution was then diluted with the described solvent-emulsifier-water mixture to the final concentration given in the table below. Oilseed rapes were grown in pots to the 13 to 14 leaf stage. These plants were sprayed to run-off with previously described spray solution, containing the concentration of active ingredient or their mixture mentioned in the table below. The plants could air-dry. The next day the applicated rape petals were fixed with 25 μl of 2.5% methylcellulose on leaf 1 and 2. 25 μl of a spore suspension of Sclerotinia sclerotiorum was pipetted on each fixed rape petal. After 14 days at 20° C. and a relative humidity of 60% the extent of fungal attack on the leaves was visually assessed as % diseased leaf area.

Fusarium culmorum = assay: Activity against Fusarium culmorum in the microtiterplate test; type: cell-based; details: 31 ppm active substance; MTP measured at 405 nm 7 days after inoculation, 18° C.
Description: The active compounds were formulated separately as a stock solution having a concentration of 10000 ppm in dimethyl sulfoxide.
The stock solutions were mixed according to the ratio, pipetted onto a micro titer plate (MTP) and diluted with water to the stated concentrations. A spore suspension of Fusarium culmorum in an aqueous biomalt or yeast-bactopeptone-glycerine or DOB solution was then added. The plates were placed in a water vapor-saturated chamber at a temperature of 18° C. Using an absorption photometer, the MTPs were measured at 405 nm 7 days after the inoculation.

Row | Compound | growth of the pathogen (Alternaria solani) [%] | growth of the pathogen (% diseased leaf area) (Sclerotinia sclerotiorum) | growth of the pathogen (Fusarium culmorum) [%]
1 | Cc1cc(C2NC(C)C(C)(C)Oc3c(F)cccc32)cnc1C (mixture of isomers) [Ex-6] | 23 |  | 
2 | Cc1cc(C2NC(C)C(C)(C)Oc3c(F)cccc32)cnc1C(F)F (mixture of isomers) [Ex-7] | 23 | at most 1% | 
3 | Cc1cc(C2c3ccccc3OCC3(CC3)N2C)cnc1C(F)F (centres unmarked) [Ex-1, 5-(6-(difluoromethyl)-5-methylpyridin-3-yl)-4-methyl-4,5-dihydro-2H-spiro[benzo[f][1,4]oxazepine-3,1′-cyclopropane]] | 23 |  | 1
